Assay results from patent US20160016998A1, “HIGH-AFFINITY MATRIPTASE INHIBITORS” (MERCK PATENT GMBH, priority 2013, published 2016).
Like-named read-outs stand apart in the source and are kept apart here. Bridge positions count the residues as written; N and C are the ends. Peptide text beside a SMILES is read from it.

Columns and labels:
[1] = disulfide bond, air (O2), (NH4)2CO3 buffer pH 8.4, water, 168.0 h
matriptase = target: T1, matriptase (Homo sapiens, UniProt Q9Y5Y6); assay: Matriptase enzyme inhibition assay with chromogenic substrate Boc-QAR-pNA; format: biochemical; settings: for matriptase affinity / inhibitor potency in words: enzyme inhibition assays, comparator as worded; for Relative Activity: ratio Ki of compound / Ki of SFTI-1[1,14]; for Sum of Increment Contributions: sum of ΔBG differences of the single modifications
T1 construct: made in house
T1 sequence (Q9Y5Y6 615-855 limits assumed): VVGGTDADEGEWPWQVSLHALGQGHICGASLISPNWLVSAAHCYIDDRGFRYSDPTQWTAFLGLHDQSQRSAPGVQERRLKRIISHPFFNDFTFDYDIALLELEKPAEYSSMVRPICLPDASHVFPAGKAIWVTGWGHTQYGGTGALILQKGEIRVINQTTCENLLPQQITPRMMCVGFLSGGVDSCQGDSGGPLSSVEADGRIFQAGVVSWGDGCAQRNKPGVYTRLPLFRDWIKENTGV
Description: (§1) Recombinant production, autocatalytic activation and purification of matriptase were conducted as previously described. Bovine trypsin was purchased from Sigma-Aldrich. Active-site titration and determination of Michaelis-Menten constants KM for the chromogenic substrate Boc-QAR-pNA was performed as reported earlier.
All experiments were performed in triplicate. […] Slopes of the initial reaction velocities (steady-state) were calculated and normalized to the data of the uninhibited enzymatic hydrolysis of Boc-QAR-pNA. The determined v/v0 values were plotted against the concentration of the inhibitor.
(§2) Errors were calculated through propagation of errors (compare Tischler et al.).[17]

Bovine trypsin = target: T2, Bovine trypsin (Bos taurus, UniProt P00760); assay: Trypsin enzyme inhibition assay with chromogenic substrate Boc-QAR-pNA; format: biochemical; settings: pH 7.6
T2 construct: purchased Sigma-Aldrich
T2 sequence (P00760 24-246): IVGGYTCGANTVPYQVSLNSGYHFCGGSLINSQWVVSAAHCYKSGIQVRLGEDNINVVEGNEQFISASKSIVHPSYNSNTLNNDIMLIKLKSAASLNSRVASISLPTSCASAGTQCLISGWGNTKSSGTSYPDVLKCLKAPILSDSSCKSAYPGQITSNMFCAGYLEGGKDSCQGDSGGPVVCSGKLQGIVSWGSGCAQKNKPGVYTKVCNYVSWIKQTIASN
Description: as §1
All experiments were performed in triplicate. Active-site titrated matriptase (final concentration: [E]=0.9 nM) or trypsin (final concentration: [E]=0.5 nM) were incubated with the respective inhibitor in different concentrations [I] at pH 7.6 or 8.5 for 30 min. Then, the chromogenic substrate Boc-QAR-pNA (final concentration: [S]=250 μM) was added. The residual proteolytic activity (v/v0) was determined by monitoring the absorption of the corresponding samples in 96-well plates (NUNC, round bottom, clear) at 405 nm in 60 sec intervals over 30 min at RT using the Tecan GENios microplate reader. Slopes of the initial reaction velocities (steady-state) were calculated and normalized to the data of the uninhibited enzymatic hydrolysis of Boc-QAR-pNA. The determined v/v0 values were plotted against the concentration of the inhibitor. The resulting dose-response curves were fitted either by equation 1 or in case of tight-binding inhibition (trypsin: 42; matriptase: 43 at pH 8.5, 44 at pH 7.6 and 8.5) by equation 2 through non-linear regression.
as §2

Compound | ΔBG(x)-ΔBG(SFTI-1[1,14]) (matriptase; matriptase, pH 7.6 (Table 2)) [kcal/mol] | Ki (matriptase; pH 7.6 (Table 2)) [nM] | Relative Activity (matriptase; matriptase, pH 7.6 (Table 2)) | Sum of Increment Contributions (matriptase; matriptase, pH 7.6) [kcal/mol] | Ki (Bovine trypsin) [nM] | Ki (matriptase; pH 8.5 (values in brackets)) [nM] | matriptase affinity / inhibitor potency in words (matriptase; pH 7.6) | other results
CC[C@H](C)[C@@H]1NC(=O)[C@@H]2CCCN2C(=O)[C@@H]2CCCN2C(=O)[C@H](Cn2cc(CN)nn2)NC(=O)[C@H](CO)NC(=O)[C@H](CCCCN)NC(=O)[C@H]([C@@H](C)O)NC(=O)[C@@H](NC(=O)[C@H](CCCNC(=N)N)NC(=O)CN)CSSC[C@@H](C(=O)N[C@@H](Cc2ccccc2)C(=O)N2CCC[C@H]2C(=O)N[C@@H](CC(=O)O)C(=O)O)NC1=O | – | – | – | – | – | – | – | ring closure, yield of all isomers ([1]; from CC[C@H](C)[C@H](NC(=O)[C@@H]1CCCN1C(=O)[C@@H]1CCCN1C(=O)[C@H](Cn1cc(CN)nn1)NC(=O)[C@H](CO)NC(=O)[C@H](CCCCN)NC(=O)[C@@H](NC(=O)[C@H](CS)NC(=O)[C@H](CCCNC(=N)N)NC(=O)CN)[C@@H](C)O)C(=O)N[C@@H](CS)C(=O)N[C@@H](Cc1ccccc1)C(=O)N1CCC[C@H]1C(=O)N[C@@H](CC(=O)O)C(=O)O, 0.63 mM, 4 steps): 17%
CC[C@H](C)[C@@H]1NC(=O)[C@H](CO)NC(=O)[C@H](CCCCN)NC(=O)[C@H]([C@@H](C)O)NC(=O)[C@@H](NC(=O)[C@H](CCCNC(=N)N)NC(=O)CN)CSSC[C@@H](C(=O)N[C@@H](Cc2ccccc2)C(=O)N2CCC[C@H]2C(=O)N[C@@H](CC(=O)O)C(=O)O)NC(=O)[C@H](CCCCN)NC(=O)[C@@H]2CCCN2C(=O)[C@@H]2CCCN2C1=O | – | – | – | – | – | – | – | ring closure, yield of all isomers ([1]; from CC[C@H](C)[C@H](NC(=O)[C@H](CO)NC(=O)[C@H](CCCCN)NC(=O)[C@@H](NC(=O)[C@H](CS)NC(=O)[C@H](CCCNC(=N)N)NC(=O)CN)[C@@H](C)O)C(=O)N1CCC[C@H]1C(=O)N1CCC[C@H]1C(=O)N[C@@H](CCCCN)C(=O)N[C@@H](CS)C(=O)N[C@@H](Cc1ccccc1)C(=O)N1CCC[C@H]1C(=O)N[C@@H](CC(=O)O)C(=O)O, […], 29 steps): 3.9%
CC[C@H](C)[C@@H]1NC(=O)[C@H](CO)NC(=O)[C@H](CCCCN)NC(=O)[C@H]([C@@H](C)O)NC(=O)[C@@H](NC(=O)[C@H](CCCNC(=N)N)NC(=O)CN)CSSC[C@@H](C(=O)N[C@@H](Cc2ccccc2)C(=O)N2CCC[C@H]2C(=O)N[C@@H](CC(=O)O)C(=O)O)NC(=O)[C@H](Cn2cc(CN)nn2)NC(=O)[C@@H]2CCCN2C(=O)[C@@H]2CCCN2C1=O | – | – | – | – | – | – | – | ring closure, yield of all isomers ([1]; from CC[C@H](C)[C@H](NC(=O)[C@H](CO)NC(=O)[C@H](CCCCN)NC(=O)[C@@H](NC(=O)[C@H](CS)NC(=O)[C@H](CCCNC(=N)N)NC(=O)CN)[C@@H](C)O)C(=O)N1CCC[C@H]1C(=O)N1CCC[C@H]1C(=O)N[C@@H](Cn1cc(CN)nn1)C(=O)N[C@@H](CS)C(=O)N[C@@H](Cc1ccccc1)C(=O)N1CCC[C@H]1C(=O)N[C@@H](CC(=O)O)C(=O)O, 0.63 mM, 22 steps): 21.2%

More lines, main results first:

ΔBG(x)-ΔBG(SFTI-1[1,14]) (matriptase; matriptase, pH 7.6 (Table 2)) [kcal/mol] | Ki (matriptase; pH 7.6 (Table 2)) [nM] | Relative Activity (matriptase; matriptase, pH 7.6 (Table 2)) | Sum of Increment Contributions (matriptase; matriptase, pH 7.6) [kcal/mol] | Ki (Bovine trypsin) [nM] | Ki (matriptase; pH 8.5 (values in brackets)) [nM] | Compound | matriptase affinity / inhibitor potency in words (matriptase; pH 7.6) | other results
1.22 ± 0.096 | 89.5 ± 11.1 | 0.13 | 1.65 ± 0.14 | 9.2 ± 2.1 | – | CC[C@H](C)[C@@H]1NC(=O)[C@H](CO)NC(=O)[C@H](CCCCN)NC(=O)[C@H]([C@@H](C)O)NC(=O)[C@@H](NC(=O)[C@H](CCCNC(=N)N)NC(=O)CN)CSSC[C@@H](C(=O)N[C@@H](Cc2c[nH]cn2)C(=O)N2CCC[C@H]2C(=O)N[C@@H](CC(=O)O)C(=O)O)NC(=O)[C@H](Cn2cc(CN)nn2)NC(=O)[C@@H]2CCCN2C(=O)[C@@H]2CCCN2C1=O [Compound 42] | further increased matriptase affinity compared to SFTI-1[1,14] derivatives 9, 18, and 22 | ring closure, yield of all isomers ([1]; from CC[C@H](C)[C@H](NC(=O)[C@H](CO)NC(=O)[C@H](CCCCN)NC(=O)[C@@H](NC(=O)[C@H](CS)NC(=O)[C@H](CCCNC(=N)N)NC(=O)CN)[C@@H](C)O)C(=O)N1CCC[C@H]1C(=O)N1CCC[C@H]1C(=O)N[C@@H](Cn1cc(CN)nn1)C(=O)N[C@@H](CS)C(=O)N[C@@H](Cc1c[nH]cn1)C(=O)N1CCC[C@H]1C(=O)N[C@@H](CC(=O)O)C(=O)O, 0.63 mM, 30 steps): 1.2%
2.46 ± 0.096 | 11 | 0.016 | 2.29 ± 0.14 | 11.2 ± 2 | 1.1 | CC[C@H](C)[C@@H]1NC(=O)[C@H](CO)NC(=O)[C@H](CCCCN)NC(=O)[C@H]([C@@H](C)O)NC(=O)[C@@H](NC(=O)[C@H](CCCNC(=N)N)NC(=O)CN)CSSC[C@@H](C(=O)N[C@@H](Cc2c[nH]cn2)C(=O)N2CCC[C@H]2C(=O)N[C@@H](CC(=O)O)C(=O)O)NC(=O)[C@H](CCCNC(=N)N)NC(=O)[C@@H]2CCCN2C(=O)[C@@H]2CCCN2C1=O [Compound 43] (H-GRCTKSIPPRCHPD-OH; disulfide 3-11; N-terminus assumed) | further increased matriptase affinity compared to SFTI-1[1,14] derivatives 9, 18, and 22 | sum of individual favorable contributions to ΔBG (matriptase; contributions of compounds 18 and 22): 2.29 ± 0.14 kcal/mol; difference of the free energies of binding/dissociation ΔBG between compound and SFTI-1[1,14] (matriptase; matriptase, pH 7.6): 2.46 ± 0.096 kcal/mol
2.8 ± 0.14 | 6.2 ± 1.2 | 0.009 | – | 38 ± 11.1 | 2.3 ± 0.8 | CC[C@H](C)[C@@H]1NC(=O)[C@H](CO)NC(=O)[C@H](CCCCN)NC(=O)[C@H]([C@@H](C)O)NC(=O)[C@@H](NC(=O)[C@H](CCCNC(=N)N)NC(=O)CN)CSSC[C@@H](C(=O)N[C@@H](Cc2c[nH]cn2)C(N)=O)NC(=O)[C@H](CCCNC(=N)N)NC(=O)[C@@H]2CCCN2C(=O)[C@@H]2CCCN2C1=O [Compound 44] (H-GRCTKSIPPRCH-NH2; disulfide 3-11; N-terminus assumed) | – | selectivity towards matriptase over trypsin (matriptase; pH 7.6): 6 fold
